Measurements as given in US7067549B2, “Pyrrolidone carboxamides” (Actelion Pharmaceuticals AG, priority 2001, dated 2006).

Target: T1, mouse NPY-Y5 receptors (mNPY-Y5) (Mus musculus, UniProt O70342)
T1 construct: The full-length cDNA which contains the mouse NPY-Y5 (mNPY-Y5) receptor coding was amplified from mouse brain cDNA; expressed in transfected cells
T1 sequence (O70342 1-466): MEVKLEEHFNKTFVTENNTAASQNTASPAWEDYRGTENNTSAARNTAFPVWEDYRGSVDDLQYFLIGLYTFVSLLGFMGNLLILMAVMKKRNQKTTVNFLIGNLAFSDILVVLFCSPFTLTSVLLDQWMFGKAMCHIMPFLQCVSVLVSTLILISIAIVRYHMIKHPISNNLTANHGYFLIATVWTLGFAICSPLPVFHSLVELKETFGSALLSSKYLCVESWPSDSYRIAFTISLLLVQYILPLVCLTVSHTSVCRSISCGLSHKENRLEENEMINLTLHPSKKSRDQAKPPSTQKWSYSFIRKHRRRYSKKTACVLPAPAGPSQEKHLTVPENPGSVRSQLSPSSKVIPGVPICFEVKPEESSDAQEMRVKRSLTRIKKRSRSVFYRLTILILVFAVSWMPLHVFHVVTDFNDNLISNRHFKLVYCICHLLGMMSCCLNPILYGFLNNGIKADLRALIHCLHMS
Assay: Radioligand competition binding (125I-PYY) on membranes of HEK293 cells expressing recombinant mouse NPY-Y5 receptor
Settings: displacement of 100 pM 125I-labeled PYY, 1 h at 22° C., read-out: NPY5 IC50
Excerpt: The full-length cDNA which contains the mouse NPY-Y5 (mNPY-Y5) receptor coding was amplified from mouse brain cDNA using specific primers, which were custom-made on the basis of published sequences, and employing Pfu DNA polymerase (Stratagene). The amplification product was subcloned into a mammalian expression vector pcDNA3 using EcoRI and XhoI restriction sites. Positive clones were sequenced; one clone, which contained the published sequence, was selected for preparing stable cell clones.
Human embryonic kidney 293 (HEK293) cells were transfected with 10 μg of mNPY5 DNA using Lipofectamine reagent (Gibco BRL) in accordance with the manufacturer's instructions. Two days after the transfection, the geneticin selection (1 mg/ml) was initiated and several stable clones were isolated. One of the clones was used for further pharmacological characterization.
Human embryonic kidney cells (HEK293) which express recombinant mouse NPY-Y5 receptors (mNPY-Y5) were disrupted by being frozen/thawed three times in hypotonic Tris buffer (5 mM, pH 7.4, 1 mM MgCl2), after which they were homogenized and centrifuged at 72 000 G for 15 minutes. The precipitate was washed twice with Tris buffer (pH 7.4) containing 25 mM MgCl2, 250 mM sucrose, 0.1 mM phenylmethylsulfonyl fluoride and 0.1 mM 1,10-phenanthroline, then resuspended in the same buffer and stored in aliquots at −80° C. The protein was determined by the Lowry method using bovine serum albumin (BSA) as the standard.
The competition binding analysis was carried out in 250 μl of 25 mM Hepes buffer (pH 7.4, 2.5 mM CaCl2, 1 mM MgCl2, 1% bovine serum albumin and 0.01% sodium azide) which 5 μg of protein, 100 pM ^125I-labeled peptide YY (PYY) and 10 μl of a DMSO solution containing increasing quantities of DMSO solution containing unlabeled test compound. After a one-hour incubation at 22° C., the bound ligand was separated from the unbound ligand by means of filtration through a glass fiber filter. Nonspecific binding was determined in the presence of 1 μM unlabeled PYY. Specific binding is defined as the difference between total binding and nonspecific binding. An IC50 value is defined as the concentration of the antagonist which displaces 50% of the ^125I-labeled […]. This concentration is determined by linear regression analysis following logit/log transformation of the binding values.

| SMILES | IC50 [nM] |
| --- | --- |
| CCn1c2ccccc2c2cc(NC(=O)C3CC(=O)N(C4Cc5ccccc5C4)C3)ccc21 (racemic) [rac. N-(9-Ethyl-9H-carbazol-3-yl)-1-indan-2-yl-5-oxopyrrolidine-3-carboxamide] | 32 |
| CCn1c2ccccc2c2cc(NC(=O)C3CC(=O)N(CCc4ccccc4)C3)ccc21 (racemic) [rac. N-(9-Ethyl-9H-carbazol-3-yl)-5-oxo-1-phenethylpyrrolidine-3-carboxamide] | 12 |
| CCN(c1ccccc1)c1ccc(NC(=O)C2CC(=O)N(C3Cc4ccccc4C3)C2)cc1 (racemic) [rac. N-[4-(Ethylphenylamino)phenyl]-1-indan-2-yl-5-oxopyrrolidine-3-carboxamide] | 49 |
| CC(C)c1ccccc1N1CC(C(=O)Nc2ccc(N(C)c3ccccc3)cc2)CC1=O (racemic) [rac. N-[4-(Methylphenylamino)phenyl]-1-(2-isopropylphenyl)-5-oxopyrrolidine-3-carboxamide] | 20 |
| CCn1c2ccccc2c2cc(NC(=O)C3CC(=O)N(Cc4ccc(Cl)cc4)C3)ccc21 (racemic) [rac. N-(9-Ethyl-9H-carbazol-3-yl)-1-(4-chlorobenzyl)-5-oxopyrrolidine-3-carboxamide] | 10 |
| CCn1c2ccccc2c2cc(NC(=O)C3CC(=O)N(CC(O)c4ccccc4)C3)ccc21 (racemic) [rac. N-(9-Ethyl-9H-carbazol-3-yl)-1-(2-hydroxy-2-phenylethyl)-5-oxopyrrolidine-3-carboxamide] | 8 |
| CCn1c2ccccc2c2cc(NC(=O)C3CC(=O)N(C4CCCCCC4)C3)ccc21 (racemic) [rac. N-(9-Ethyl-9H-carbazol-3-yl)-1-cycloheptyl-5-oxopyrrolidine-3-carboxamide] | 15 |
| CC(C)c1ccccc1N1CC(C(=O)Nc2ccc(Nc3ccccc3)cc2)CC1=O (racemic) [rac. N-(4-Phenylaminophenyl)-1-(2-isopropylphenyl)-5-oxopyrrolidine-3-carboxamide] | 41 |
| CCn1c2ccccc2c2cc(NC(=O)C3CC(=O)N(Cc4ccccc4Cl)C3)ccc21 (racemic) [rac. N-(9-Ethyl-9H-carbazol-3-yl)-1-(2-chlorobenzyl)-5-oxopyrrolidine-3-carboxamide] | 20 |
| CCn1c2ccccc2c2cc(NC(=O)C3CC(=O)N(Cc4ccccc4)C3)ccc21 (racemic) [rac. N-(9-Ethyl-9H-carbazol-3-yl)-1-benzyl-5-oxopyrrolidine-3-carboxamide] | 32 |
| CCn1c2ccccc2c2cc(NC(=O)C3CC(=O)N(c4cccc(OC)c4)C3)ccc21 (racemic) [rac. N-(9-Ethyl-9H-carbazol-3-yl)-1-(3-methoxyphenyl)-5-oxopyrrolidine-3-carboxamide] | 20 |
| CCn1c2ccccc2c2cc(NC(=O)C3CC(=O)N(c4ccccc4)C3)ccc21 (racemic) [rac. N-(9-Ethyl-9H-carbazol-3-yl)-5-oxo-1-phenylpyrrolidine-3-carboxamide] | 21 |
| CCn1c2ccccc2c2cc(NC(=O)C3CC(=O)N(c4ccccc4C(C)C)C3)ccc21 (racemic) [rac. N-(9-Ethyl-9H-carbazol-3-yl)-1-(2-isopropylphenyl)-5-oxopyrrolidine-3-carboxamide] | 10 |

Further lines, results first:

| IC50 [nM] | SMILES |
| --- | --- |
| 23 | CCN(c1ccccc1)c1ccc(NC(=O)C2CC(=O)N(c3ccccc3C(C)C)C2)cc1 (racemic) [rac. N-[4-(Ethylphenylamino)phenyl]-1-(2-isopropylphenyl)-5-oxopyrrolidine-3-carboxamide] |
| 10 | CCN(c1ccc(NC(=O)C2CC(=O)N(c3cc(C)ccc3C)C2)cc1)C(C)C (racemic) [rac. N-[4-(Ethylisopropylamino)phenyl]-1-(2,5-dimethylphenyl)-5-oxopyrrolidine-3-carboxamide] |
| 30 | CCN(c1ccccc1)c1ccc(NC(=O)C2CC(=O)N(c3cc(OC)ccc3C)C2)cc1 (racemic) [rac. N-[4-(Ethylphenylamino)phenyl]-1-(5-methoxy-2-methylphenyl)-5-oxopyrrolidine-3-carboxamide] |
| 22 | Cc1ccc(N2CC(C(=O)Nc3ccc(N(C)c4nc(C)cc(C)n4)cc3)CC2=O)cc1 (racemic) [rac. N-{4-[(4,6-Dimethylpyrimidin-2-yl)methylamino]phenyl}-5-oxo-1-p-tolylpyrrolidine-3-carboxamide] |
| 45 | Cc1ccc(C)c(N2CC(C(=O)Nc3ccc(C(C)C)cc3)CC2=O)c1 (racemic) [rac. N-(4-Isopropylphenyl)-1-(2,5-dimethylphenyl)-5-oxopyrrolidine-3-carboxamide] |
| 33 | CCN(c1ccc(NC(=O)C2CC(=O)N(CC(O)c3ccccc3)C2)cc1)c1nc(C)cc(C)n1 (racemic) [rac. N-{4-[(4,6-Dimethylpyrimidin-2-yl)ethylamino]phenyl}-1-(2-hydroxy-2-phenylethyl)-5-oxo-pyrrolidine-3-carboxamide] |
| 13 | CCOC(=O)CN(c1ccccc1)c1ccc(NC(=O)C2CC(=O)N(c3cc(C)ccc3C)C2)cc1 (racemic) [rac. Ethyl [(4-{[1-(2,5-dimethylphenyl)-5-oxopyrrolidine-3-carbonyl]amino}phenyl)phenylamino]acetate] |
| 34 | COc1ccc(C)c(N2CC(C(=O)Nc3ccc(N(CC4CC4)c4ccccc4)cc3)CC2=O)c1 (racemic) [rac. N-[4-(Cyclopropylmethylphenylamino)phenyl]-1-(5-methoxy-2-methylphenyl)-5-oxopyrrolidine-3-carboxamide] |
| 15 | CCN(c1ccc(NC(=O)C2CC(=O)N(c3cc(OC)ccc3C)C2)cc1)c1nc(C)cc(C)n1 (racemic) [rac. N-{4-[(4,6-Dimethylpyrimidin-2-yl)ethylamino]phenyl}-1-(5-methoxy-2-methylphenyl)-5-oxopyrrolidine-3-carboxamide] |
| 20 | Cc1ccc(C)c(N2CC(C(=O)Nc3ccc(Nc4nc(C)cc(C)n4)cc3)CC2=O)c1 (racemic) [rac. N-[4-(4,6-Dimethylpyrimidin-2-ylamino)phenyl]-1-(2,5-dimethylphenyl)-5-oxopyrrolidine-3-carboxamide] |
| 31 | Cc1cc(C)nc(N(C)c2ccc(NC(=O)C3CC(=O)N(c4ccccc4C(C)C)C3)cc2)n1 (racemic) [rac. N-{4-[(4,6-Dimethylpyrimidin-2-yl)methylamino]phenyl}-1-(2-isopropylphenyl)-5-oxopyrrolidine-3-carboxamide] |
| 9 | CCN(CC)c1ccc(NC(=O)C2CC(=O)N(c3cc(C)ccc3C)C2)cc1 (racemic) [rac. N-(4-Diethylaminophenyl)-1-(2,5-dimethylphenyl)-5-oxopyrrolidine-3-carboxamide] |
| 46 | CCOC(=O)CN(c1ccccc1)c1ccc(NC(=O)C2CC(=O)N(c3cc(OC)ccc3C)C2)cc1 (racemic) [rac. Ethyl [(4-{[1-(5-methoxy-2-methylphenyl)-5-oxopyrrolidine-3-carbonyl]amino}phenyl)phenylamino]acetate] |
| 20 | Cc1ccc(C)c(N2CC(C(=O)Nc3ccc(N(C)c4nc(C)cc(C)n4)cc3)CC2=O)c1 (racemic) [rac. N-{4-[(4,6-Dimethylpyrimidin-2-yl)methylamino]phenyl}-1-(2,5-dimethylphenyl)-5-oxopyrrolidine-3-carboxamide] |
| 30 | Cc1ccc(C)c(N2CC(C(=O)Nc3ccc(Nc4ccccc4)cc3)CC2=O)c1 (racemic) [rac. N-(4-Phenylaminophenyl)-1-(2,5-dimethylphenyl)-5-oxopyrrolidine-3-carboxamide] |
